From US9469650B2, “Melampomagnolide B derivatives” (BOARD OF TRUSTEES OF THE UNIVERSITY OF ARKANSAS, priority 2013, dated 2016)

Key:
A549/ATCC = test: panel of 60 human tumor cell lines, growth inhibition (Non-Small Cell Lung Cancer); details: for Percent Growth: A549/ATCC
UACC-257 = test: panel of 60 human tumor cell lines, growth inhibition (Melanoma)
TK-10 = test: panel of 60 human tumor cell lines, growth inhibition (Renal Cancer); details: for GI50: TK-10, TK-10; for Percent Growth: TK-10
SK-MEL-5 = test: panel of 60 human tumor cell lines, growth inhibition (Melanoma); details: for Percent Growth: 8K-MEL-5
IGROV1 = test: panel of 60 human tumor cell lines, growth inhibition (Ovarian Cancer); details: for Percent Growth: IGROVI
MDA-MB-468 = test: panel of 60 human tumor cell lines, growth inhibition (Breast Cancer)
OVCAR-8 = test: panel of 60 human tumor cell lines, growth inhibition (Ovarian Cancer)
NCI-H522 = test: panel of 60 human tumor cell lines, growth inhibition (Non-Small Cell Lung Cancer)
COLO 205 = test: panel of 60 human tumor cell lines, growth inhibition (Colon Cancer)
MCF7 = test: panel of 60 human tumor cell lines, growth inhibition (Breast Cancer); details: for GI50: MCF7, MCF7; for Percent Growth: MCF7
HOP-92 = test: panel of 60 human tumor cell lines, growth inhibition (Non-Small Cell Lung Cancer); details: for Percent Growth: HOP-92; for GI50: HOP-92, HOP-92
HCT-15 = test: panel of 60 human tumor cell lines, growth inhibition (Colon Cancer)
SK-OV-3 = test: panel of 60 human tumor cell lines, growth inhibition (Ovarian Cancer)
NCI-H23 = test: panel of 60 human tumor cell lines, growth inhibition (Non-Small Cell Lung Cancer)
BT-549 = test: panel of 60 human tumor cell lines, growth inhibition (Breast Cancer)
RXF 393 = test: panel of 60 human tumor cell lines, growth inhibition (Renal Cancer); details: for GI50: RXF 393, RXF 393; for Percent Growth: RXF 393
CCRF-CEM = test: panel of 60 human tumor cell lines, growth inhibition (Leukemia)

SMILES: C=C1C(=O)O[C@H]2[C@H]1CC/C(COC(=O)NCCc1ccccn1)=C\CC[C@@]1(C)O[C@@H]21 [JVM 61, ((1aR,7aS,10aS,10bS,E)-1a-methyl-8-methylene-9-oxo-1a,2,3,6,7,7a,8,9,10a,10b-decahydrooxireno[2′,3′:9,10]cyclodeca[1,2-b]furan-5-yl)methyl-(2-(pyridin-2-yl)ethyl)carbamate]
- Percent Growth (A549/ATCC; Log10 Concentration −4.0): −54%
- Percent Growth (A549/ATCC; Log10 Concentration −5.0): 64%
- Percent Growth (A549/ATCC; Log10 Concentration −6.0): 6.7%
- Percent Growth (A549/ATCC; Log10 Concentration −8.0): 95%
- GI50 (A549/ATCC; Homo sapiens, A549): 13.1 µM
- CC50 (A549/ATCC; Homo sapiens, A549, read-out: LC50): 92 µM
- IC (TGI) (A549/ATCC; Homo sapiens, A549, read-out: TGI): 34.7 µM
- GI50 (UACC-257; Homo sapiens, UACC-257): 4.59 µM
- CC50 (UACC-257; Homo sapiens, UACC-257, read-out: LC50): 53.7 µM
- TGI (UACC-257; UACC-257): 1.95E−5
- Percent Growth (UACC-257; UACC-257, Log10 Concentration −4.0): −81%
- Percent Growth (UACC-257; UACC-257, Log10 Concentration −5.0): 33%
- Percent Growth (UACC-257; UACC-257, Log10 Concentration −6.0): 83%
- Percent Growth (UACC-257; UACC-257, Log10 Concentration −7.0): 92%
- Percent Growth (UACC-257; UACC-257, Log10 Concentration −8.0): 97%
- GI50 (TK-10; Homo sapiens): 3.13 µM
- GI50 (TK-10; Homo sapiens, 5-dose assay): 3.78 µM
- CC50 (TK-10; Homo sapiens, TK-10, read-out: LC50): 37.5 µM
- IC (TGI) (TK-10; Homo sapiens, TK-10, read-out: TGI): 12.9 µM
- Percent Growth (TK-10; Log10 Concentration −4.0): −96%
- Percent Growth (TK-10; Log10 Concentration −5.0): 12%
- Percent Growth (TK-10; Log10 Concentration −6.0): 102%
- Percent Growth (TK-10; Log10 Concentration −7.0): 104%
- Percent Growth (TK-10; Log10 Concentration −8.0): 101%
- Percent Growth (SK-MEL-5; Log10 Concentration −4.0): −94%
- Percent Growth (SK-MEL-5; Log10 Concentration −5.0): 50%
- Percent Growth (SK-MEL-5; Log10 Concentration −6.0): 96%
- Percent Growth (SK-MEL-5; Log10 Concentration −7.0): 95%
- Percent Growth (SK-MEL-5; Log10 Concentration −8.0): 96%
- GI50 (SK-MEL-5; Homo sapiens, SK-MEL-5): 9.78 µM
- CC50 (SK-MEL-5; Homo sapiens, SK-MEL-5, read-out: LC50): 49.1 µM
- IC (TGI) (SK-MEL-5; Homo sapiens, SK-MEL-5, read-out: TGI): 22.1 µM
- GI50 (IGROV1; Homo sapiens, IGROV-1): 14.4 µM
- CC50 (IGROV1; Homo sapiens, IGROV-1, read-out: LC50): 78.9 µM
- IC (TGI) (IGROV1; Homo sapiens, IGROV-1, read-out: TGI): 33.8 µM
- Percent Growth (IGROV1; Log10 Concentration −4.0): −64%
- Percent Growth (IGROV1; Log10 Concentration −5.0): 72%
- Percent Growth (IGROV1; Log10 Concentration −6.0): 102%
- Percent Growth (IGROV1; Log10 Concentration −7.0): 104%
- Percent Growth (IGROV1; Log10 Concentration −8.0): 106%
- GI50 (MDA-MB-468; Homo sapiens, MDA-MB-468): 3.22 µM
- CC50 (MDA-MB-468; Homo sapiens, MDA-MB-468, read-out: LC50): 64.5 µM
- IC (TGI) (MDA-MB-468; Homo sapiens, MDA-MB-468, read-out: TGI): 16.4 µM
- Percent Growth (MDA-MB-468; MDA-MB-468, Log10 Concentration −4.0): −66%
- Percent Growth (MDA-MB-468; MDA-MB-468, Log10 Concentration −5.0): 18%
- Percent Growth (MDA-MB-468; MDA-MB-468, Log10 Concentration −6.0): 83%
- Percent Growth (MDA-MB-468; MDA-MB-468, Log10 Concentration −7.0): 89%
- Percent Growth (MDA-MB-468; MDA-MB-468, Log10 Concentration −8.0): 95%
- GI50 (OVCAR-8; Homo sapiens, OVCAR-8): 4.39 µM
- CC50 (OVCAR-8; Homo sapiens, OVCAR-8, read-out: LC50): 65.1 µM
- IC (TGI) (OVCAR-8; Homo sapiens, OVCAR-8, read-out: TGI): 18.5 µM
- Percent Growth (OVCAR-8; OVCAR-8, Log10 Concentration −4.0): −67%
- Percent Growth (OVCAR-8; OVCAR-8, Log10 Concentration −5.0): 25%
- Percent Growth (OVCAR-8; OVCAR-8, Log10 Concentration −6.0): 96%
- Percent Growth (OVCAR-8; OVCAR-8, Log10 Concentration −7.0): 100%
- Percent Growth (OVCAR-8; OVCAR-8, Log10 Concentration −8.0): 108%
- GI50 (NCI-H522; Homo sapiens, NCI-H522): 1.64 µM
- CC50 (NCI-H522; Homo sapiens, NCI-H522, read-out: LC50): 9.29 µM
- IC (TGI) (NCI-H522; Homo sapiens, NCI-H522, read-out: TGI): 3.9 µM
- Percent Growth (NCI-H522; NCI-H522, Log10 Concentration −4.0): −69%
- Percent Growth (NCI-H522; NCI-H522, Log10 Concentration −5.0): −54%
- Percent Growth (NCI-H522; NCI-H522, Log10 Concentration −6.0): 76%
- Percent Growth (NCI-H522; NCI-H522, Log10 Concentration −7.0): 96%
- Percent Growth (NCI-H522; NCI-H522, Log10 Concentration −8.0): 95%
- Percent Growth (COLO 205; COLO 205, Log10 Concentration −4.0): −79%
- Percent Growth (COLO 205; COLO 205, Log10 Concentration −5.0): 3%
- Percent Growth (COLO 205; COLO 205, Log10 Concentration −6.0): 107%
- Percent Growth (COLO 205; COLO 205, Log10 Concentration −7.0): 108%
- Percent Growth (COLO 205; COLO 205, Log10 Concentration −8.0): 104%
- GI50 (COLO 205; Homo sapiens, COLO 205): 3.54 µM
- CC50 (COLO 205; Homo sapiens, COLO 205, read-out: LC50): 44.6 µM
- IC (TGI) (COLO 205; Homo sapiens, COLO 205, read-out: TGI): 11 µM
- GI50 (MCF7; Homo sapiens): 2.65 µM
- GI50 (MCF7; Homo sapiens, 5-dose assay): 2.85 µM
- CC50 (MCF7; Homo sapiens, MCF7, read-out: LC50): 61.4 µM
- IC (TGI) (MCF7; Homo sapiens, MCF7, read-out: TGI): 13 µM
- Percent Growth (MCF7; Log10 Concentration −4.0): −66%
- Percent Growth (MCF7; Log10 Concentration −5.0): 8%
- Percent Growth (MCF7; Log10 Concentration −6.0): 85%
- Percent Growth (MCF7; Log10 Concentration −8.0): 91%
- Percent Growth (HOP-92; Log10 Concentration −4.0): −87%
- Percent Growth (HOP-92; Log10 Concentration −5.0): 12%
- Percent Growth (HOP-92; Log10 Concentration −6.0): 71%
- Percent Growth (HOP-92; Log10 Concentration −7.0): 66%
- Percent Growth (HOP-92; Log10 Concentration −8.0): 0.2%
- GI50 (HOP-92; Homo sapiens): 2.25 µM
- GI50 (HOP-92; Homo sapiens, 5-dose assay): 2.25 µM
- CC50 (HOP-92; Homo sapiens, HOP-92, read-out: LC50): 42.2 µM
- IC (TGI) (HOP-92; Homo sapiens, HOP-92, read-out: TGI): 13.1 µM
- Percent Growth (HCT-15; HCT-15, Log10 Concentration −4.0): −81%
- Percent Growth (HCT-15; HCT-15, Log10 Concentration −5.0): 22%
- Percent Growth (HCT-15; HCT-15, Log10 Concentration −6.0): 89%
- Percent Growth (HCT-15; HCT-15, Log10 Concentration −7.0): 97%
- Percent Growth (HCT-15; HCT-15, Log10 Concentration −8.0): 98%
- GI50 (HCT-15; Homo sapiens, HCT-15): 3.5 µM
- CC50 (HCT-15; Homo sapiens, HCT-15, read-out: LC50): 50.1 µM
- IC (TGI) (HCT-15; Homo sapiens, HCT-15, read-out: TGI): 15.4 µM
- GI50 (SK-OV-3; Homo sapiens, SK-OV-3): 26.2 µM
- CC50 (SK-OV-3; Homo sapiens, SK-OV-3, read-out: LC50): > 100 µM
- IC (TGI) (SK-OV-3; Homo sapiens, SK-OV-3, read-out: TGI): 97.4 µM
- Percent Growth (SK-OV-3; SK-OV-3, Log10 Concentration −4.0): −1%
- Percent Growth (SK-OV-3; SK-OV-3, Log10 Concentration −5.0): 87%
- Percent Growth (SK-OV-3; SK-OV-3, Log10 Concentration −6.0): 103%
- Percent Growth (SK-OV-3; SK-OV-3, Log10 Concentration −7.0): 187%
- Percent Growth (SK-OV-3; SK-OV-3, Log10 Concentration −8.0): 106%
- GI50 (NCI-H23; Homo sapiens, NCI-H23): 11.3 µM
- CC50 (NCI-H23; Homo sapiens, NCI-H23, read-out: LC50): 78.8 µM
- IC (TGI) (NCI-H23; Homo sapiens, NCI-H23, read-out: TGI): 29.9 µM
- Percent Growth (NCI-H23; NCI-H23, Log10 Concentration −4.0): −62%
- Percent Growth (NCI-H23; NCI-H23, Log10 Concentration −5.0): 56%
- Percent Growth (NCI-H23; NCI-H23, Log10 Concentration −6.0): 100%
- Percent Growth (NCI-H23; NCI-H23, Log10 Concentration −7.0): 101%
- Percent Growth (NCI-H23; NCI-H23, Log10 Concentration −8.0): 104%
- Percent Growth (BT-549; BT-549, Log10 Concentration −4.0): −95%
- Percent Growth (BT-549; BT-549, Log10 Concentration −6.0): 85%
- Percent Growth (BT-549; BT-549, Log10 Concentration −7.0): 96%
- Percent Growth (BT-549; BT-549, Log10 Concentration −8.0): 96%
- GI50 (BT-549; Homo sapiens, BT-549): 2.6 µM
- CC50 (BT-549; Homo sapiens, BT-549, read-out: LC50): 33.6 µM
- IC (TGI) (BT-549; Homo sapiens, BT-549, read-out: TGI): 10.1 µM
- GI50 (RXF 393; Homo sapiens): 2.22 µM
- GI50 (RXF 393; Homo sapiens, 5-dose assay): 2.22 µM
- CC50 (RXF 393; Homo sapiens, RXF 393, read-out: LC50): 45 µM
- IC (TGI) (RXF 393; Homo sapiens, RXF 393, read-out: TGI): 15.5 µM
- Percent Growth (RXF 393; Log10 Concentration −4.0): −77%
- Percent Growth (RXF 393; Log10 Concentration −5.0): 2%
- Percent Growth (RXF 393; Log10 Concentration −6.0): 76%
- Percent Growth (RXF 393; Log10 Concentration −8.0): 101%
- GI50 (CCRF-CEM; Homo sapiens): 2.65 µM
- GI50 (CCRF-CEM; Homo sapiens, 5-dose assay): 2.65 µM
- CC50 (CCRF-CEM; Homo sapiens, read-out: LC50): > 100 µM
- IC (TGI) (CCRF-CEM; Homo sapiens, read-out: TGI): 8.59 µM
- Percent Growth (CCRF-CEM; Log10 Concentration −4.0): −39%
- Percent Growth (CCRF-CEM; Log10 Concentration −5.0): −6%
- Percent Growth (CCRF-CEM; Log10 Concentration −6.0): 91%
- Percent Growth (CCRF-CEM; Log10 Concentration −7.0): 100%
- Percent Growth (CCRF-CEM; Log10 Concentration −8.0): 104%
